Tests used:
Type in all cases: cell-based
[1] = molecular target: T1, mouse TGR5 receptor (Mus musculus, UniProt Q80SS6); assay: Mouse TGR5 HTRF cAMP production assay (HEK293-EBNA cells, Cisbio cAMP HiRange kit); details: HEK293-EBNA cells overexpressing mouse TGR5, HTRF cAMP assay
T1 construct: host or cells: HEK293-EBNA (293 c18, ATCC CRL10852)
T1 sequence (Q80SS6 1-329): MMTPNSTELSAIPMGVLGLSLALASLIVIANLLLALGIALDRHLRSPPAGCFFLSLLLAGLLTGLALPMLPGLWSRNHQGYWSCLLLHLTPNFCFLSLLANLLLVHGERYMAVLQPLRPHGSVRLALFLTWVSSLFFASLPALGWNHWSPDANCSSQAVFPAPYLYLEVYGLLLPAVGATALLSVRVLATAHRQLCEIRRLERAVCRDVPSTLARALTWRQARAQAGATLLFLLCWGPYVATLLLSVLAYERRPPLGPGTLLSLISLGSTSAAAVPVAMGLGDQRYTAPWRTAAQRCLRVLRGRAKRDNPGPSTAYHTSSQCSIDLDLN
Summary of the method: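 cAMP accumulation was read by competitive HTRF after 1 h room-temperature compound treatment, with a further 1 h conjugate incubation. Cells were mouse TGR5-overexpressing HEK293-EBNA in serum-free DMEM plus 500 μM IBMX. Compounds ran as 12-point half-log series in duplicate, and EC50 values were reported.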

[2] = molecular target: T2, human TGR5 receptor (Homo sapiens, UniProt Q8TDU6); assay: Human TGR5 cAMP production assay (hTGR5-CHO cells, DiscoveRx cAMP XS+ kit); details: luminescent cAMP assay, read-out: Human TGR5 Lum. cAMP Activity (EC50)
T2 construct: host or cells: CHO-K1 (hTGR5-CHO)
T2 sequence (Q8TDU6 1-330): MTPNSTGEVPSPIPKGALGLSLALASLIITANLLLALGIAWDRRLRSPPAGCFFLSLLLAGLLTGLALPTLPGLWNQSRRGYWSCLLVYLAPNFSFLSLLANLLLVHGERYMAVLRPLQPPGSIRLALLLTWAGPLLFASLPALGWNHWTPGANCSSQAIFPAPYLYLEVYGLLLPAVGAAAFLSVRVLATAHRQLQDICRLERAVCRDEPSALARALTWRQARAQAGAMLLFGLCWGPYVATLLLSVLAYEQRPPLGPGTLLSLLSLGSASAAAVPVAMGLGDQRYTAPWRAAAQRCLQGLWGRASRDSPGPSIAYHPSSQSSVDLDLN
Summary of the method: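 EC50 values come from luminescent enzyme-complementation cAMP detection, read after overnight incubation. Beforehand, hTGR5-expressing CHO-K1 cells with IBMX and anti-cAMP antibody were exposed 1 h at room temperature to serially diluted (half-log) compounds.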

[3] = test system: Mouse STC-1 cells; assay: STC-1 GLP-1 assay (GLP-1 secretion); details: Mouse STC-1 cells, GLP-1 secretion, 2 h; read-out: Mouse STC-1 HTRF GLP-1 Activity (EC50)
Procedure: Compounds of the present invention were evaluated for their ability to induce GLP-1 production in mouse intestinal neuroendocrine tumor cells.
Mouse STC-1 cells were cultured and maintained in high glucose DMEM (Sigma #5796) supplemented with 15% horse serum, 5% Fetal Bovine Serum (FBS), 1%° penicillin/streptomycin, and 2 mM L-alanine L-glutamine (GlutaMax). Two days prior to analysis of GLP-1 secretion cells were harvested using Accutase (Sigma), spun down then resuspended in high glucose DMEM media containing 2 mM L-alanine L-glutamine (GlutaMax), 10% charcoal-dextran stripped FBS, and 50 μg/mL Gentamicin, at a density of 100,000° cells/mL. 100 μL of cell suspension was added to each well of a 96-well Poly-D-Lysine coated culture plate (Sigma; cat #2382493) and was incubated at 37° C. with 5% CO2.
Compounds were initially diluted in 100% DMSO (12-point serial dilution by half logs) in a 96-well plate and then were further diluted 1:500 in Hanks' Balanced Salt Solution (HBSS) containing protease inhibitor cocktail, DPP-IV inhibitor, and 0.1% fatty acid free bovine serum albumin. On the day of the experiment cells were washed once with HBSS. After wash, 100 μL of test compound was added to each well. The plate was incubated at 37° C. with 5% CO2 for 2° h. Supernatants were collected and GLP-1 secretion was measured using the Cisbio™ Active GLP-1 HTRF Assay Kit (CisBio). Briefly, Anti-GLP-1-d2 conjugate and Anti-GLP-1 Terbium Cryptate conjugate stock solutions were prepared as per kit instructions. The two solutions were pre-mixed and 10 μL were transferred to a 384-well low volume plate (Greiner; cat #784075). 10 μL of collected supernatants were added to wells already containing the conjugate solution. The plate was covered and incubated at room temperature overnight. The plate was read on an Envision™ plate reader (PerkinElmer).
In Table 53, EC50 values were obtained from the STC-1 GLP-1 production assay for compounds of the present invention are summarized.

Row | SMILES | EC50 [1] [nM] | EC50 [2] [nM] | EC50 [3] [nM]
1 | CN(C)CCC1CCN(c2cc(N3CC[C@H]3C(=O)NCCc3ccc(C#N)cc3)nc(C(F)(F)F)n2)CC1 [Compound 228, (S)-N-(4-cyanophenethyl)-1-(6-(4-(2-(dimethylamino)ethyl)piperidin-1-yl)-2-(trifluoromethyl)pyrimidin-4-yl)azetidine-2-carboxamide] | < 100 | < 100 | 100 to 999
2 | COc1cc(C(F)(F)F)ccc1CCNC(=O)[C@@H]1CCN1c1cc(N2CCC(CCO)CC2)nc(C(F)(F)F)n1 [Compound 238, (5)-1-(6-(4-(2-hydroxyethyl)piperidin-1-yl)-2-(trifluoromethyl)pyrimidin-4-yl)-N-(2-methoxy-4-(trifluoromethyl)phenethyl)azetidine-2-carboxamide] | < 100 | < 100 | 100 to 999
3 | N[C@@H](CO)C(=O)N1CCN(c2cc(N3CCC[C@@H](C(=O)NCCc4ccc(C(F)(F)F)cc4)C3)nc(C(F)(F)F)n2)CC1 [Compound 342, (R)-1-(6-(4-((S)-2-amino-3-hydroxypropanoyl)piperazin-1-yl)-2-(trifluoromethyl)pyrimidin-4-yl)-N-(4-(trifluoromethyl)phenethyl)piperidine-3-carboxamide] | < 100 | 100 to 999 | 100 to 999
4 | N#Cc1ccc(CCNC(=O)[C@@H]2CCCN2c2cc(N3CCC(CO)CC3)cc(C(F)(F)F)n2)cc1 [Compound 38] | < 100 | < 100 | 100 to 999
5 | N#CCCN1CCN(c2cc(N3CC[C@H]3C(=O)NCCc3ccc(C#N)cc3)nc(C(F)(F)F)n2)CC1 [Compound 229, (S)-1-(6-(4-(2-cyanoethyl)piperazin-1-yl)-2-(trifluoromethyl)pyrimidin-4-yl)-N-(4-cyanophenethyl)azetidine-2-carboxamide] | < 100 | < 100 | 100 to 999
6 | COc1cc(C(F)(F)F)ccc1CCNC(=O)[C@@H]1CCN1c1cc(N2CCC(CCCC(=O)O)CC2)nc(C(F)(F)F)n1 [Compound 240, (S)-4-(1-(6-(2-((2-methoxy-4-(trifluoromethyl)phenethyl)carbamoyl)azetidin-1-yl)-2-(trifluoromethyl)pyrimidin-4-yl)piperidin-4-yl)butanoic acid] | < 100 | < 100 | < 100
7 | N#CCCN1CCN(c2cc(N3CCC[C@H]3C(=O)NCCc3ccc(C(F)(F)F)cc3)nc(C(F)(F)F)n2)CC1 [Compound 10] | < 100 | < 100 | 100 to 999
8 | N#Cc1ccc(CCNC(=O)[C@@H]2CCN2c2cc(N3CCC(CCC(=O)NCCS(=O)(=O)O)CC3)nc(C(F)(F)F)n2)cc1 [Compound 262] | < 100 | < 100 | 100 to 999
9 | CN(C)CCN1CCN(c2cc(N3CCC[C@@H](C(=O)NCCc4ccc(C#N)cc4)C3)nc(C(F)(F)F)n2)CC1 [Compound 333, (R)-N-(4-cyanophenethyl)-1-(6-(4-(2-(dimethylamino)ethyl)piperazin-1-yl)-2-(trifluoromethyl)pyrimidin-4-yl)piperidine-3-carboxamide] | < 100 | < 100 | 100 to 999
10 | COCCN1CCN(c2cc(N3CCC[C@@H](C(=O)NCCc4ccc(C(F)(F)F)cc4)C3)nc(C(F)(F)F)n2)CC1 [Compound 328, (R)-1-(6-(4-(2-methoxyethyl)piperazin-1-yl)-2-(trifluoromethyl)pyrimidin-4-yl)-N-(4-(trifluoromethyl)phenethyl)piperidine-3-carboxamide] | < 100 | < 100 | 100 to 999
11 | N#Cc1ccc(CCNC(=O)[C@@H]2CCN2c2cc(N3CCC(CCC(=O)O)CC3)nc(C(F)(F)F)n2)cc1 [Compound 227, (S)-3-(1-(6-(2-((4-cyanophenethyl)carbamoyl)azetidin-1-yl)-2-(trifluoromethyl)pyrimidin-4-yl)piperidin-4-yl)propanoic acid] | < 100 | < 100 | 100 to 999
12 | N#CCCC1CCN(c2cc(N3CC[C@H]3C(=O)NCCc3ccc(C#N)cc3)nc(C(F)(F)F)n2)CC1 [Compound 230, (S)-1-(6-(4-(2-cyanoethyl)piperidin-1-yl)-2-(trifluoromethyl)pyrimidin-4-yl)-N-(4-cyanophenethyl)azetidine-2-carboxamide] | < 100 | < 100 | 100 to 999
13 | CCOC(=O)CCNC(=O)NCCC1CCN(c2cc(N3CCC[C@@H](C(=O)NCCc4ccc(C#N)cc4)C3)nc(C(F)(F)F)n2)CC1 [Compound 346, (R)-ethyl 3-(3-(2-(1-(6-(3-((4-cyanophenethyl)carbamoyl)piperidin-1-yl)-2-(trifluoromethyl)pyrimidin-4-yl)piperidin-4-yl)ethyl)ureido)propanoate] | < 100 | < 100 | < 100
14 | N#Cc1ccc(CCNC(=O)[C@@H]2CCCN2c2cc(N3CCC(CCNS(=O)(=O)CCNC(=O)NCCC(=O)O)CC3)nc(C(F)(F)F)n2)cc1 [Compound 371, (S)-3-(3-(3-((2-(1-(6-(2-((4-cyanophenethyl)carbamoyl)pyrrolidin-1-yl)-2-(trifluoromethyl)pyrimidin-4-yl)piperidin-4-yl)ethyl)amino)-2-sulfonyl)ethylureido)propanoic acid] | < 100 | < 100 | 100 to 999
